According to PubChem BioAssay (NCI):
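Tested at 5 concentrations; 48 h exposure; 96-well plates; endpoints linearly interpolated, else capped at highest concentration. GI50 is the concentration that inhibits growth by half. At the TGI there is no net growth.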

How the values were obtained:
Experiment in all cases: DTP human tumour cell line panel, 48 h
[1] = system: OVCAR-8 ovarian
[2] = system: SNB-75 CNS
[3] = system: MALME-3M melanoma
[4] = system: SF-295 CNS
[5] = system: SF-268 CNS
[6] = system: LOX IMVI melanoma
[7] = system: COLO 205 colon
[8] = system: OVCAR-3 ovarian
[9] = system: CAKI-1 renal
[10] = system: MDA-MB-435

SMILES | TGI [1] [µM] | TGI [2] [µM] | TGI [3] [µM] | TGI [4] [µM] | TGI [5] [µM] | TGI [6] [µM] | TGI [7] [µM] | TGI [8] [µM] | TGI [9] [µM] | GI50 [1] [µM] | GI50 [2] [µM] | GI50 [3] [µM] | GI50 [4] [µM] | GI50 [5] [µM] | GI50 [6] [µM] | GI50 [7] [µM] | GI50 [9] [µM] | GI50 [8] [µM] | GI50 [10] [µM] | TGI [10] [µM]
COc1ccc(OC(C)C(=O)O)c2c(=O)ccccc12 (stereo not drawn) | > 100 | > 100 | > 100 | > 100 | > 100 | > 100 | > 100 | > 100 | – | – | – | – | – | – | – | – | – | – | – | –
O/N=C/c1ccc(O)c(O)c1 | > 100 | > 100 | > 100 | > 100 | > 100 | > 100 | > 100 | > 100 | > 100 | – | – | – | – | – | – | – | – | – | – | –
CC(=O)[CH-]C(=O)c1ccccc1.CC(=O)[CH-]C(=O)c1ccccc1.[O-]c1ccc2c(c1)OCO2.[O-]c1ccc2c(c1)OCO2.[Ti+4] | > 100 | 66.1 | 50.2 | > 100 | > 100 | 55 | > 100 | > 100 | > 100 | 34.4 | 19.2 | 23.1 | 30.6 | 33.6 | 18.2 | 32 | 29.5 | 26.8 | – | –
CCC(CO)Nc1nc2c(c(=O)n(C)c(=O)n2C)n1CCO (stereo not drawn) | > 100 | > 100 | > 100 | > 100 | > 100 | – | > 100 | > 100 | – | – | – | – | – | – | – | – | – | – | – | –
O=C1Nc2cc(F)ccc2C1=O | > 100 | > 100 | > 100 | > 100 | > 100 | > 100 | > 100 | – | > 100 | – | – | – | – | – | – | – | – | – | – | –
CC(=O)Oc1ccc2c(c1)C(=O)c1nc(C)c(C)nc1C2=O | > 100 | > 100 | 38 | > 100 | > 100 | > 100 | > 100 | 59.1 | > 100 | – | – | – | – | – | – | – | – | – | – | –
CCCCN(CCCC)CC(C(C)=O)C(c1ccccc1)c1c(O)c2ccccc2oc1=O (stereo not drawn) | > 100 | 76.3 | > 100 | > 100 | > 100 | > 100 | > 100 | > 100 | > 100 | – | – | – | – | – | – | – | – | – | – | –
C1=CCCC=CCC1.C[PH+](C)C.C[PH+](C)C.C[PH+](C)C.[Cl-].[Ir] | > 100 | > 100 | 61.5 | > 100 | – | > 100 | – | 77.4 | – | 35.2 | 34.3 | 22.9 | > 100 | – | 31.4 | – | – | 29.6 | – | –
O=C1N=C(Nc2nc(-c3csc(NC4=NC(=O)/C(=C\c5ccccc5)S4)n3)cs2)S/C1=C/c1ccccc1 | > 50 | – | – | > 50 | > 50 | > 50 | > 50 | > 50 | > 50 | 15.6 | – | – | 16.6 | 16.6 | > 50 | 30.3 | 29.2 | 20.8 | 14.7 | > 50
O=c1c2cc3ccccc3n2c(=O)c2cc3ccccc3n12 | > 100 | > 100 | > 100 | > 100 | > 100 | > 100 | – | > 100 | > 100 | – | – | – | – | – | – | – | – | – | – | –
N#Cc1cccc(C2C3=C(COC3=O)N(CCO)c3cc4c(cc32)OCO4)c1 (stereo not drawn) | > 50 | 2.76 | – | > 50 | > 50 | > 50 | > 50 | > 50 | > 50 | 2.88 | 0.745 | – | 1.17 | 3.99 | 2.42 | 1.58 | 1.32 | 1.35 | 0.154 | 1.03
c1ccc(OC2=NC3=S(S2)SC(Oc2ccccc2)=N3)cc1 | 57.6 | 59.5 | 41.7 | 39 | 57.6 | 43.4 | 37.2 | 28.6 | 34.3 | – | – | – | – | – | – | – | – | – | – | –
C=C1C(=O)O[C@H]2C[C@@H]1C(=O)CC(C)CCCC(C)=CCC[C@@]2(C)O (stereo partly drawn) | > 25 | – | > 25 | > 25 | > 25 | > 25 | > 25 | > 25 | – | – | – | – | – | – | – | – | – | – | – | > 25
COc1cc(/C=C2\CCCC3=C2N=C2SC(C)=NN2C3c2cc(OC)c(OC)c(OC)c2)cc(OC)c1OC (stereo not drawn) | > 100 | – | > 100 | – | – | – | > 100 | > 100 | – | 0.311 | – | > 100 | – | – | – | 0.429 | – | 0.58 | 0.341 | > 100
COc1cc2cnc3c4cc(OCc5ccccc5)ccc4ccc3c2cc1OC | > 100 | 18.7 | > 100 | 82.9 | > 100 | > 100 | 74.9 | > 100 | > 100 | – | – | – | – | – | – | – | – | – | – | –
O=C1NC2C(O)CCCCC2C12CCCCC2 (stereo not drawn) | > 100 | > 100 | > 100 | > 100 | > 100 | > 100 | > 100 | > 100 | > 100 | – | – | – | – | – | – | – | – | – | – | –
C[CH2][Sn]([CH2]C)([O]C(=O)c1ccc(F)cc1)[O]C(=O)c1ccc(F)cc1 | > 79.2 | 33.5 | 34.2 | > 65.7 | 33.5 | 37.9 | 39.6 | > 82.2 | 16.3 | > 52.9 | 17.9 | 16.6 | 44.3 | 17.9 | 18 | 20.3 | 4.05 | > 48 | – | –
Nc1c2ccccc2nc2c(C(=O)Nc3ccc(S(N)(=O)=O)cc3)cccc12 | > 100 | > 100 | > 100 | > 100 | > 100 | > 100 | > 100 | > 100 | > 100 | – | – | – | – | – | – | – | – | – | – | –
C[C@H]1C=C2C(=O)O[C@H]3CC[C@@H](C1)[C@@]23O | 13.8 | 19.5 | 20 | 16.4 | 15.2 | 10.3 | 12.5 | 16.9 | 14.8 | – | – | – | – | – | – | – | – | – | – | –
